This note sets out measurements from BindingDB's records for doi:10.1021/jm0304358 (Yale University, 2004).

Each structure is given as a SMILES string.

The test concerns the target Cyclin-dependent kinase 2 (Homo sapiens, UniProt P24941). Briefly: Evaluated for inhibition of human cyclin dependent kinase 2 (CDK2).
As for `Cc1cc(Cl)cc2c1NC(=O)C2C=Nc1ccc(S(N)(=O)=O)cc1` (stereo not given), the IC50 was over 10000 nM. `Cc1cccc2c1NC(=O)C2C=Nc1ccc(S(N)(=O)=O)cc1` (stereo not given) returned an IC50 of over 10000 nM. With `CN(C)c1ccc2c(c1)C(C=Nc1ccc(S(N)(=O)=O)cc1)C(=O)N2` (stereo not given) [4-({[5-(Dimethylamino)-2-oxo-1,2-dihydro-3H-indol-3-ylidene]methyl}amino)benzenesulfonamide], the IC50 was 310 nM. The result for `O=C1Nc2ccc3ncsc3c2C1C=Nc1ccc(S(=O)(=O)NCc2ccccc2)cc1` (stereo not given) [N-Benzyl-4-{[(7-oxo-6,7-dihydro-8H-[1,3]thiazolo[5,4-e]-indol-8-ylidene)methyl]amino}benzenesulfonamide] reads 5.6 nM; that for `CNS(=O)(=O)c1ccc(N=CC2C(=O)Nc3ccc4ncsc4c32)cc1` (stereo not given) [N-Methyl-4-{[(7-oxo-6,7-dihydro-8H-[1,3]thiazolo[5,4-e]-indol-8-ylidene)methyl]amino}benzenesulfonamide], 5.6 nM.
